Data published in US20230321064A1, “Products for Treating the JNCL Disease” (Beyond Batten Disease Foundation, priority 2020, published 2023).
“Also recorded” adds a separate entry of the source. Like-named read-outs stand apart in the source and are kept apart here.

What was measured:
[1] = tested on: purified trehalase; test: In vitro colorimetric trehalase assay (glucose generation, 340 nm); format: biochemical; details: in the presence of miglustat; 340 nm absorbance
Protocol: To this aim, an in vitro colorimetric assay was performed to measure the rate of generation of glucose, the product of trehalose hydrolysis by trehalase. In the absence of miglustat, trehalose was rapidly hydrolysed by purified trehalase, and the glucose produced could be quantified at 340 nm absorbance. In the test conditions, the amounts of glucose detected increased over time to reach a plateau in […].

[2] = tested on: Cln3^Δex7-8 mice; test: Neuronal cell death, cleaved caspase-3 immunohistology in brain sections; format: in vivo, mouse; details: for cell death (cleaved CAS-3) in the VPM/VPL region: 12 months of age, oral, 2% Trehalose in drinking water, Miglustat in chow (FIG. 1E)
Protocol: (§1) Cln3^Δex7-8 mice were obtained from the Jackson Laboratory. Control (C57BL/6J) and Cln3^Δex7-8 mice were housed 3-4 per cage in a room with a 12-h light/12-h dark cycle. Food and water were provided ad libitum. All mice used in this study were analyzed at 8 and 12 months of age and were littermates produced by crossing heterozygous Cln3^Δex7-8 mice. Only males were used for this analysis. Investigators were blinded when analyzing the data, and no randomization was necessary.
(§2) For oral administration, Trehalose was dissolved in drinking water to a final concentration of 2% and changed twice a week. Trehalose-containing water was given to Cln3^Δex7-8 mice and WT mice by spontaneous oral administration starting at 21 days of age and continuing until the day the mice were sacrificed for neuropathology studies.
(§3) Miglustat was administered in mixture with the food pellet starting at 21 days of age and continuing until the day the mice were sacrificed for neuropathology studies. Miglustat food was prepared by TestDiet using the 5V5R rodent diet (LabDiet). Two concentrations were used: 1.2 g/Kg chow (indicated as “low concentration”) and 7.2 g/Kg chow (indicated as “high concentration”) and two separate groups of Cln3^Δex7-8 mice were fed with either diet. One additional group of Cln3^Δex7-8 l mice was fed with a combination of the low-concentration Miglustat food and 2% Trehalose water.
(§4) Twelve-month-old homozygous Cln3^Δex7-8 mice and age-matched controls (WT mice) were anaesthetized with isoflurane and transcardially perfused with PBS followed by 4% buffered paraformaldehyde in 0.1 M sodium phosphate buffer, pH 7.4. Brains were subsequently removed and postfixed overnight. Before sectioning, the brains were cryoprotected in a solution containing 30% sucrose in Tris-buffered saline (TBS: 50 mM Tris, pH 7.6). Consecutive 40 μm floating coronal sections were collected in 96-well plates. Series of sections were then stained with primary antisera against CD68 (AbD
(§5) Serotec, Cat. No. MCA1957), GFAP (DAKO, Cat. No. Z0334), Subunit C of mitochondrial ATP synthase (SCMAS; Abcam, Cat. No. ab181243), or cleaved caspase 3 (Asp175) (Cell Signaling, Cat. No. 9661S) followed by either rabbit anti-rat (VectorLab) or swine anti-rabbit (DAKO) secondary antibodies, and immunoreactivity detected with Vectastain ABC (avidin-biotin) kit (Vector) and diaminobenzidine as a chromogen.
(§6) Non-overlapping images were captured, on three consecutive sections, through each region of interest. All RGB images were captured via a live video camera (JVC, 3CCD, KY-F55B), mounted onto a Zeiss Axioplan microscope using a x 40 objective and saved as JPEGs. All parameters including lamp intensity, video camera set-up and calibration were maintained constant throughout image capturing. For quantification of storage and inflammation, images were analyzed using ImageJ analysis software (NIH), using an appropriate threshold that selected the foreground immunoreactivity above background. This threshold was then applied as a constant to all subsequent images analyzed per batch of animals and reagent used to determine the specific area of immunoreactivity for each antigen in each region. Data were plotted graphically as the mean percentage area of immunoreactivity per field ±s.e.m. for each region. For quantification of cell death, images were analyzed manually and scored for the presence of apoptotic nuclei. Data were plotted graphically as the mean number of apoptotic cells per field ±s.e.m. for each region. […]

[3] = tested on: Cln3^Δex7-8 mice; test: Microglial activation, CD68 immunohistochemistry in brain sections; format: in vivo, mouse
Protocol: as §1, §2, §3, §4, §5
as §6, with “Data were plotted graphically as the mean percentage area of immunoreactivity per field ±s.e.m. for each region.” left out, “nuclei.” for “nuclei. Data were plotted graphically as the mean number of apoptotic cells per field ±s.e.m. for each region.”
(S1BF), the primary visual (V1) cortex, and the dorsolateral geniculate (DLG) (Pontikis et al., 2005). To quantify microglial activation, antibodies against the microglial marker CD68 were used. […]

[4] = tested on: Cln3^Δex7-8 mice; test: Astrocytosis, GFAP immunohistochemistry in brain sections; format: in vivo, mouse
Protocol: as §1, §2, §3, §4, §5
Non-overlapping images were captured, on three consecutive sections, through each region of interest. All RGB images were captured via a live video camera (JVC, 3CCD, KY-F55B), mounted onto a Zeiss Axioplan microscope using a x 40 objective and saved as JPEGs. All parameters including lamp intensity, video camera set-up and calibration were maintained constant throughout image capturing. For quantification of storage and inflammation, images were analyzed using ImageJ analysis software (NIH), using an appropriate threshold that selected the foreground immunoreactivity above background. This threshold was then applied as a constant to all subsequent images analyzed per batch of animals and reagent used to determine the specific area of immunoreactivity for each antigen in each region. Data were plotted graphically as the mean percentage area of immunoreactivity per field ±s.e.m. for each region. For quantification of cell death, images were analyzed manually and scored for the presence of apoptotic nuclei. Data were plotted graphically as the mean number of apoptotic cells per field ±s.e.m. for each region. All analyses were performed blind to genotype and treatment.
[…] was also quantified by performing immunohistochemistry staining of brain sections of all test and control mice using anti-GFAP antibodies.

[5] = tested on: Cln3^Δex7-8 mice; test: Lysosomal storage in cerebellum (SCMAS staining); format: in vivo, mouse; details: 12 months of age
Protocol: as §1
For oral administration, Trehalose was dissolved in drinking water to a final concentration of 2% and changed twice a week. […]
as §5
Non-overlapping images were captured, on three consecutive sections, through each region of interest. […] For quantification of storage and inflammation, images were analyzed using ImageJ analysis software (NIH), using an appropriate threshold that selected the foreground immunoreactivity above background. […]

[6] = tested on: CLN3 1kb mutant human fibroblasts; test: Glycosphingolipid and lysosomal storage in CLN3 1 kb deletion mutant fibroblasts; format: cell-based
[7] = tested on: human CLN3 disease NPC derived cortical neurons; test: Glycosphingolipid and lysosomal storage in CLN3 patient iPSC/NPC derived cortical neurons; format: cell-based
[8] = tested on: cln3 morphant zebrafish embryos; test: Glycosphingolipid/SCMAS storage and eye phenotype in cln3 morphant zebrafish embryos; format: in vivo; details: miglustat 300 μM from 4 hpf for 88 h
[9] = cited from earlier work
[10] = Miglustat 50 μM during the final week of differentiation

In the case of CCCCN1C[C@H](O)[C@@H](O)[C@H](O)[C@H]1CO [Miglustat, (2R,3R,4R,5S)-1-butyl-2-(hydroxymethyl)piperidine-3,4,5-triol], the “trehalase-mediated hydrolysis of trehalose to glucose (glucose generated)” value [1] is reported as “only a minimal amount of glucose was generated”, the “cell death (cleaved CAS-3) in the VPM/VPL region” value [2] is reported as “largely suppressed” and the “cell death (cleaved CAS-3) in the VPM/VPL region” value ([2]; listed as miglustat) is reported as “prevented”. For the same compound, the “programmed cell death (cleaved caspase-3 reactive cells)” value ([2]; regions analyzed: VPM/VPL, dLG, S1BF, V1 (FIGS. 1A-D), oral treatment) was “effective in abating programmed cell death”, the “microglial activation (CD68) in the VPM/VPL” value ([3]; FIG. 2A) was “potently prevented microglial activation; also recorded: undistinguishable from WT mice” and the “microglial activation (CD68) in the DLG” value ([3]; FIG. 2B) was “significantly decreased microglial activation”. The “CD68 staining in the VPM/VPL” value ([3]; low concentrations of Miglustat (1.2 g/Kg chow), FIG. 2E) was “largely reduce CD68 staining”, the “CD68 staining in the cerebellum” value ([3]; low concentrations of Miglustat, not shown) was “partially or largely reduce CD68 staining” and the “astroglial activation (GFAP staining) in the VPM/VPL region” value ([4]; 12 months of age, oral, Miglustat even at low doses (FIG. 3E)) was “largely suppressed”. The “astrocytosis (GFAP immunoreactivity) in the VPM/VPL” value ([4]; FIG. 3A) was “undistinguishable from that of WT mice”, the “astrocytosis (GFAP immunoreactivity) in the DLG” value ([4]; FIG. 3B) was “prevented astrocytosis” and the “astrocytosis (GFAP) in the S1BF” value ([4]; FIG. 3C) was “reduction in astrocytosis, although this did not reach statistical significance”. For the same compound, the “increased storage in the cerebellum (SCMAS staining)” value [5] was “no consistent effects”, the “accumulation of SCMAS” value ([6]; 50 μM miglustat) was “significantly reduced” and the “localisation of CtxB (ganglioside GM1)” value ([6]; 50 μM miglustat) was “restores sub-plasma membrane localisation”. The “lysosomal inclusions by EM” value ([6]; 50 μM miglustat) was “notable absence of the dark membranous whorl-like inclusions”, the “peak CtxB fluorescence (confocal line scans)” value ([6]; 50 μM miglustat) was “clearly reduces the peak CtxB fluorescence” and the “swollen mitochondria with abnormal cristae (electron microscopy)” value ([6]; 50 μM miglustat) was “normalised”. For the same compound, the “accumulating GSLs (ganglioside GM1 by CtxB, globosides Gb3/4 by SLxT)” value ([6]; 50 μM miglustat for 5 days) was “normalised; also recorded: significant reduction in the accumulating GSLs back to control levels”, the “elevated lysosomal Ca2+” value ([6]; 50 μM miglustat, ionomycin/GPN, Fura 2,AM) was “restored to healthy control levels” and the “localisation of CtxB (ganglioside GM1)” value ([6]; 50 μM miglustat, listed as miglustat) was “normalisation in localisation of CtxB back to the plasma membrane”. For the same compound, the “autophagy (CytoID)” value ([6]; 50 μM miglustat, live cells) was “normalisation in elevated autophagy”, the “expansion of the lysosomal system (lysotracker staining)” value ([6]; 50 μM miglustat, live cells) was “normalisation in the visible expansion of the lysosomal system” and the “excitotoxic glutamate induced Ca2+ signalling” value [7, 10] was “normalisation of excitotoxic glutamate induced Ca^2+ signalling”. The “expansion of the lysosomal and autophagic vacuole systems (lysotracker and cytoID staining)” value [7, 10] was “reduction in expansion of the lysosomal and autophagic vacuole systems”, the “lipid and protein storage levels (globoside, ganglioside GM1, SCMAS)” value [7, 10] was “normalised; also recorded: reduced lipid and protein storage levels” and the lipid localisation [7, 10] was “normalisation of lipid localisation”. For the same compound, the “lysosomal Ca2+ content” value ([7]; Miglustat 50 μM, ionomycin/GPN, Fura 2,AM) was “normalisation of lysosomal Ca^2+ content”, the “fluorescence intensity of glycolipids and of lipofuscin associated SCMAS storage” value [8] was “normalised; also recorded: decrease, particularly in the brain, in fluorescence intensity” and the “ganglioside GM1 storage within the brain (CtxB line scans)” value [8] was “reduced; also recorded: normalised”. The retinal area [8] was “restored to wild-type levels”, the Solubility in water ([9]; as a free base) was “(>1000 mg/mL as a free base)” and the “Solubility in water” value [9] was “Miglustat: Highly soluble in water”.
